Assays:
22Rv1 cancer cells = assay: Western blot for polyubiquitinated proteins; format: cell-based, human; conditions: anti-ubiquitin antibody
Procedure: Example 3D: Proteins are denatured and separated as described in example 3C; on the membrane a western blot is performed using an antibody that targets ubiquitin for detection of polyubiquitinated proteins; the probes include a molecular weight marker (“Marker”), DMSO (vehicle which serves as a control), an unconjugated statin (Simvastatin), an unconjugated dye (DZ1), and the THSD (here ALSD of formula FIId, “DZ2a”, compound 7). […] Thus it is shown that THSD prevent the removal of polyubiquitinated proteins by cancer cells through altered autophagic processes which involve defective lysosomal functions.

PC3 (PC) = assay: MTT cell viability, PC3; format: cell-based; conditions: Homo sapiens, 48 h / 24 hours, relative IC50
Procedure: (§1) Cell culture: In the following examples, unless otherwise specified, all cell lines are purchased from American Type Culture Collection and cultured in American Type Culture Collection (ATCC)-recommended media, with fetal bovine serum (FBS) to a final concentration of 10% and 1×penicillin/streptomycin at 37° C. with 5% CO2 in a cell culture incubator, unless otherwise specified. Unless otherwise specified, culture is 2D. Where culture is 3D, low attachment plates are used, with the same media. C4-2B (parental cell line and drug-resistant cells derived therefrom) are cultured in RPMI-1640 with 10% FBS. MDVR cells (an Enzalutamide-resistant variety of C4-2B prostate cancer cells formed as described in Example 4 below) are cultured as indicated for the parental C4-2B cells. 22RV1 Prostate Cancer (PC) cells (ATCC® CRL-2505™, a human prostate carcinoma cell line of epithelial morphology) are cultured in RPMI-1640 with 10% FBS. A549 cells (ATCC® CCL-185™, a human lung carcinoma cell line of epithelial morphology) are cultured in F-12K medium with 10% FBS. A549/DDP cells (Cells were described in DOI: 10.3892/mmr.2014.2163 and in doi: 10.7150/jca.19426; cisplatin resistant cells may be established from exposing parental A549 cells to cisplatin for an extended time). MDR A549/cisplatin lung adenocarcinoma cell line, drug resistant) are cultured in F-12K medium with 10% FBS. […]

EZ-resistant C4-2B (PC) = assay: MTT cell viability, EZ-resistant C4-2B (MDVR); format: cell-based; conditions: Homo sapiens, 48 h / 24 hours, relative IC50
Procedure: as §1

[1] = tested on: 22RV1 prostate cancer cells; assay: Cholesterol levels in whole cells and mitochondria (LC-SIM); format: cell-based, human
Procedure: Example 3E: Whole cells and mitochondria are prepared/treated as follows. 22RV1 prostate cancer cells are cultured as described herein-above. The cells are harvested, treated with Lithium dodecyl sulfate (LDS) detergent, then a whole cell fraction and an isolated mitochondrial fraction provided by centrifugation and the pellets are processed to determine their cholesterol levels as follows: cholesterol is extracted with hexane/methanol mixture (7:1, v/v), into which an appropriate amount of stable isotope-labeled d7-cholesterol standard (Avanti Polar Lipids) is spiked. Samples are sonicated in a water-bath, vortexed, and centrifuged at 16,000×g for 5 min at RT. The upper layers are dried down in a SpeedVac at RT. Then samples are incubated with 200 μL 10 mg/mL 4-(dimethylamino)phenyl isocyanate (DMAPI) in dichloromethane and 30 μL triethylamine at 65° C. for 1.5 h in a ThermoMixer. The reaction is quenched by phosphate buffer (pH 8.0), followed by extraction of DMAPI-labeled cholesterol with hexane and vacuum concentration in a SpeedVac. The dry residues are reconstituted in acetonitrile/isopropanol (1:1) and analyzed by liquid chromatography-selected ion monitoring (LC-SIM) using an Ultimate 3000 XRS liquid chromatography system connected to an Orbitrap Fusion Lumos mass spectrometer (Thermo Scientific). Following separation on a 5-cm Hypersil GOLD C18 column, DMAPI-derivatized endogenous cholesterol (m/z 549.442) and d7-cholesterol (m/z 556.485) are analyzed by time-scheduled SIM analysis on an Orbitrap Fusion Lumos. The acquired LC-SIM data are analyzed by Skyline for cholesterol quantification.

22RV1 (PC) = assay: MTT cell viability, 22RV1; format: cell-based, human; conditions: Homo sapiens, 22Rv1, 22RV1, treated for 48 h /, relative IC50
Procedure: Cell culture: In the following examples, unless otherwise specified, all cell lines are purchased from American Type Culture Collection and cultured in American Type Culture Collection (ATCC)-recommended media, with fetal bovine serum (FBS) to a final concentration of 10% and 1×penicillin/streptomycin at 37° C. with 5% CO2 in a cell culture incubator, unless otherwise specified. Unless otherwise specified, culture is 2D. Where culture is 3D, low attachment plates are used, with the same media. C4-2B (parental cell line and drug-resistant cells derived therefrom) are cultured in RPMI-1640 with 10% FBS. MDVR cells (an Enzalutamide-resistant variety of C4-2B prostate cancer cells formed as described in Example 4 below) are cultured as indicated for the parental C4-2B cells. 22RV1 Prostate Cancer (PC) cells (ATCC® CRL-2505™, a human prostate carcinoma cell line of epithelial morphology) are cultured in RPMI-1640 with 10% FBS. A549 cells (ATCC® CCL-185™, a human lung carcinoma cell line of epithelial morphology) are cultured in F-12K medium with 10% FBS. A549/DDP cells (Cells were described in DOI: 10.3892/mmr.2014.2163 and in doi: 10.7150/jca.19426; cisplatin resistant cells may be established from exposing parental A549 cells to cisplatin for an extended time). MDR A549/cisplatin lung adenocarcinoma cell line, drug resistant) are cultured in F-12K medium with 10% FBS. H1975 cells (ATCC® CRL-5908™, a human adenocarcinoma non-small cell lung cancer cell line of epithelial morphology) are cultured in RPMI-1640 medium with 10% FBS; H1975 cells are a cell model for human lung cancer that is resistant to Gefitinib (an EGFR inhibitor drug used for treatment of certain breast, lung and other cancers). H1650 cells (ATCC® CRL-5883™, a adenocarcinoma/bronchoalveolar carcinoma lung cancer cell line of epithelial morphology) are cultured in RPMI-1640 medium with 10% FBS. […]
[…] For each cell line, the IC50 is determined for each drug, i.e. the ELSD, the ALSD, and for the corresponding unconjugated statin (Simvastatin), in concentrations from 0.1-100 μM. […]

IC50 (PC3 (PC))	IC50 (22RV1 (PC))	SMILES	ubiquitin signal (polyubiquitinated proteins) (22Rv1 cancer cells)	IC50 (EZ-resistant C4-2B (PC))	Cholesterol, mitochondria ([1]; mitochondrial fraction)	Cholesterol, mitochondria, relative to vehicle control (100%) ([1]; mitochondrial fraction)	Cholesterol, mitochondria, relative to vehicle control (100%) ([1]; mitochondrial fraction, listed as SIM)	Cholesterol, whole cells ([1]; whole cells)	Cholesterol, whole cells, relative to vehicle control (100%) ([1]; whole cells)	Cholesterol, whole cells, relative to vehicle control (100%) ([1]; whole cells, listed as SIM)
–	–	CC1(C)C(/C=C/C2=C(Cl)C(=C/C=C3/N(CCCCCC(=O)O)c4ccccc4C3(C)C)/CCC2)=[N+](CCCCS(=O)(=O)[O-])c2ccccc21 [DZ1]	much weaker signals and less of a smear	–	–	–	–	–	–	–
14.8 µM	38.7 µM	CCC(C)(C)C(=O)O[C@H]1C[C@@H](C)C=C2C=C[C@H](C)[C@H](CC[C@@H]3C[C@@H](O)CC(=O)O3)[C@H]21 [Simvastatin]	–	25.5 µM	56 nmol Cholesterol per 10^7 cells	51%	(51%)	102 nmol Cholesterol per 10^6 cells	88%	(88%)

— patent US20230116399A1, “Tumor Homing Statin Derivatives” (Da Zen Theranostics, Inc., priority 2019, published 2023)
